In article PMC6222357, “Liquid Chromatography-Tandem Mass Spectrometry Simultaneous Determination and Pharmacokinetic Study of Fourteen Alkaloid Components in Dog Plasma after Oral Administration of Corydalis bungeana Turcz Extract” (Molecules : A Journal of Synthetic Chemistry and Natural …, 2018):
Read-outs that look alike come from different tables or passages of the source.

Legend:
[1] = Stability of the analytes in beagle plasma QC samples under different storage conditions; format: physicochemical, beagle dog; details: n = 6; for Stability (% RE) Long-Term: 2 weeks at −80 °C; for Stability (% RE) Short-Term: 4 h at ambient temperature; for Stability (% RE) Freeze-Thaw: three freeze (−80 °C)-thaw cycles; for Stability (% RE) Post-Preparative: 12 h after sample preparation at 4 °C
Procedure: As illustrated in Table 4. The stability of QC samples at three evaluated concentrations contained low, medium and high under different stored conditions was assessed on the basis of peak areas in comparison with freshly prepared QC sample.
(§1) The stability of the fourteen analytes in beagle dogs investigated by analyzing QC samples of each analyte at three QC levels (LQC, MQC and HQC) and each level contained six replicates. The short-term stability was assessed during storage for 4 h at ambient temperature. The long-term stability was determined after the QC samples had been stored for 2 weeks at −80 °C. The freeze-thaw stability was determined after three freeze at −80 °C and thaw cycles. and post-preparative stability was during storage for 12 h after sample preparation at 4 °C. The room temperature stability for stock solution was determined after storing the sample at 25 °C for 24 h. A series of concentrations of stability testing QC samples was gained by the calibration curve which was established from freshly prepared standard samples.

in vivo = details: male, beagle, dog, po, 0.12 g/kg
Procedure: (§2) The developed UHPLC-MS/MS method was employed to determine the pharmacokinetics of the fourteen components in C. bungeana after a single oral administration of 0.12 g/kg (equivalent to 1180.8 µg/kg A, 100.8 µg/kg B, 172.8 µg/kg C, 194.4 µg/kg D, 147.6 µg/kg E, 291.6 µg/kg F, 7.2 µg/kg G, 64.8 µg/kg H, 10.8 µg/kg I, 435.6 µg/kg J, 7.2 µg/kg K, 2851.2 µg/kg L, 694.8 µg/kg M, 928.8µg/kg N) to six beagle dogs. […] According to the Meeh-Rubn method, we established a final oral dosage of 0.12 g/kg in dogs. The plasma concentrations of the fourteen components at each time point were detected and the data gained from six beagle dogs were averaged.
(§3) Before the experiment, the beagle dogs were fasted for 12 h but given water during the research period. Blood (300 µL) was collected from the forelimb vein plexus at a few specific time points (0.083, 0.25, 0.5, 0.75 and 1, 2, 3, 4, 6, 8, 12, 24 h) after the oral administration of the extract of C. bungeana (0.12 g/kg). After centrifugation at 13,000 rpm for 10 min, the plasma was collected immediately and maintained at −80 °C until sample analysis.
(§4) Using a liquid-liquid extraction method, 100 µL of methanol and 50 µL of IS (bifendate) were added to a beagle dog plasma sample (100 µL) followed by vortex for 30 s. Then 3 mL of aether was accurately added and the mixture was vortexed for 60 s. After this step, the samples were put into a centrifuge (XiangYi Technologies, Changsha, Hunan, China). The organic supernatant was pipetted into clean glass tubes individually after centrifugation 3800 rpm for 6 min. The upper organic layer was removed and evaporated to dryness at 40 °C under a stream of nitrogen. The residue was then redissolved with 100 µL of mobile phase (28% acetonitrile), vortexed for 30 s and filtered by a 0.22 µm membrane. A 10 µL aliquot of the solution was injected into the UHPLC-MS/MS system for analysis.
(§5) Concentrations of fourteen alkaloids in beagle dog blood were calculated employing the Excel program (Microsoft Corp., Redmond, WA, USA). Pharmacokinetic parameters were calculated using non-compartmental methods. The elimination rate constant (Ke) was calculated employing the linear regression of the terminal points in a semi-log plot of the plasma concentration against time. The elimination half-life (t1/2) was calculated using the formula. t1/2 = 0.693/Ke(1)
(§6) The area under the blood concentration versus time curve up to the last quantifiable time point (AUC0→t) was calculated by the linear trapezoidal rule. The area under the plasma concentration –time curve to time infinity (AUC0→∞) was calculated as follows: AUC0→∞ = AUC0→t + Ct/Ke(2)
(§7) The maximum observed blood concentration (Cmax) and the time to reach maximum observed blood concentration (Tmax) were obtained directly from the concentration-time curve.

[2] = set-up: method as in PMID 26805956; details: rat plasma, single oral administration of C. bungeana extract; cited from earlier work
[3] = Pharmacokinetic study in beagle dogs after oral administration of C. bungeana extract (UHPLC-MS/MS of plasma); details: male, beagle, dog, plasma, po, 0.12 g/kg
Procedure: as §2, §3, §4, §5, §6, §7

[4] = Room temperature stability of stock solution; format: physicochemical; details: 25 °C for 24 h, n = 6
Procedure: as §1

| Compound | Stability (% RE) Long-Term ([1]; high QC in beagle plasma) [% RE] | Stability (% RE) Short-Term ([1]; high QC in beagle plasma) [% RE] | Stability (% RE) Freeze-Thaw ([1]; high QC in beagle plasma) [% RE] | Stability (% RE) Long-Term ([1]; low QC in beagle plasma) [% RE] | Stability (% RE) Short-Term ([1]; low QC in beagle plasma) [% RE] | Stability (% RE) Freeze-Thaw ([1]; low QC in beagle plasma) [% RE] | Stability (% RE) Long-Term ([1]; medium QC in beagle plasma) [% RE] | Stability (% RE) Short-Term ([1]; medium QC in beagle plasma) [% RE] | Stability (% RE) Freeze-Thaw ([1]; medium QC in beagle plasma) [% RE] | AUC(0-inf) (in vivo) [ng·h/mL] | AUC(0-t) (in vivo) [ng·h/mL] | Cmax (in vivo) [ng/mL] | Tmax (in vivo) [h] | half-life (in vivo) [h] | Stability (% RE) Post-Preparative ([1]; high QC) [% RE] | Stability (% RE) Post-Preparative ([1]; low QC) [% RE] | Stability (% RE) Post-Preparative ([1]; medium QC) [% RE] | Tmax [2] [h] | AUC(0-inf) [3] [ng·h/mL] | AUC(0-t) [3] [ng·h/mL] | also measured |
| --- | --- | --- | --- | --- | --- | --- | --- | --- | --- | --- | --- | --- | --- | --- | --- | --- | --- | --- | --- | --- | --- |
| c1c2c(cc3c1OCO3)-c1cc3ccc4c(c3c[n+]1CC2)OCO4 [Coptisine, coptisine] | 13.69 | 7.57 | 12.83 | 5.48 | 10.66 | 10.21 | 6.73 | −3.05 | 8.93 | 6030 ± 194 | 5960 ± 205 | 2260 ± 256 | 0.92 ± 0.13 | 2.48 ± 0.33 |  |  |  |  |  |  |  |
| CN1CCc2cc3c(cc2C(=O)Cc2ccc4c(c2C1)OCO4)OCO3 [Protopine, protopine] | 13.11 | 12.18 | 10.26 | −5.39 | 5.52 | 3.72 | 7.93 | 8.75 | 4.17 |  |  |  |  |  | 10.57 | 1.65 | 11.35 | 1.96 | 1080 ± 136 | 1030 ± 106 | Cmax [3]: 434 ± 73.9 ng/mL; Tmax [3]: 0.88 ± 0.13 h; half-life [3]: 4.92 ± 1.49 h |
| C[n+]1cc2c3c(ccc2c2ccc4cc5c(cc4c21)OCO5)OCO3 [Sanguinarine, sanguinarine] | 11.08 | 9.29 | 12.22 | 13.35 | 12.41 | 11.45 | 7.46 | −5.50 | 8.78 | 1350 ± 109 | 1260 ± 107 | 533 ± 29.1 | 0.96 ± 0.1 | 5.63 ± 1.36 | 10.40 | 7.77 | −2.41 |  |  |  | Stability (% RE) Room Temperature for Stock-Solution ([4]; high QC level): −4.02 % RE; Stability (% RE) Room Temperature for Stock-Solution ([4]; low QC level): 2.48 % RE; Stability (% RE) Room Temperature for Stock-Solution ([4]; medium QC level): 3.20 % RE |
| COc1ccc(CCNC(=O)/C=C/c2ccc(O)c(O)c2)cc1 [Z23, 7′-(3′,4′-dihydroxyphenyl)-N-[(4-methoxyphenyl)-ethyl]propena-mide] | 9.00 | 10.85 | 12.43 | −8.16 | 10.52 | 5.35 | 9.86 | 9.94 | 12.92 |  |  |  |  |  | −6.09 | 12.10 | 11.32 | 3.71 | 747 ± 95.2 | 682 ± 74.8 | Stability (% RE) Room Temperature for Stock-Solution ([4]; high QC level): 2.30 % RE; Stability (% RE) Room Temperature for Stock-Solution ([4]; low QC level): 3.65 % RE; Stability (% RE) Room Temperature for Stock-Solution ([4]; medium QC level): 1.64 % RE; Cmax [3]: 237 ± 13.7 ng/mL; Tmax [3]: 0.96 ± 0.1 h; half-life [3]: 6.34 ± 1.21 h |
